# Assays:
# Proteus vulgaris [1] = assay: Antibacterial activity against Proteus vulgaris MTCC 1771 at 100 ug/disc by paper disc diffusion technique; assay type: functional; settings: read-out: IZ
# [2] = system: Mycobacterium tuberculosis; assay: Antituberculosis activity against Mycobacterium tuberculosis H37Rv by Lowenstein-Jensen method; assay type: functional
# Bacillus cereus [3] = assay: Antibacterial activity against Bacillus cereus MTCC 430 at 100 ug/disc by paper disc diffusion technique; assay type: functional; settings: read-out: IZ
# Proteus vulgaris [4] = assay: Antibacterial activity against Proteus vulgaris MTCC 1771 by agar streak dilution method; assay type: functional
# Escherichia coli [5] = assay: Antibacterial activity against Escherichia coli MTCC 739 at 100 ug/disc by paper disc diffusion technique; assay type: functional; settings: read-out: IZ
# Candida albicans [6] = assay: Antifungal activity against Candida albicans MTCC 183 by agar streak dilution method; assay type: functional
# Aspergillus clavatus [7] = assay: Antifungal activity against Aspergillus clavatus MTCC 1323 by agar streak dilution method; assay type: functional
# Staphylococcus aureus [8] = assay: Antibacterial activity against Staphylococcus aureus MTCC 96 at 100 ug/disc by paper disc diffusion technique; assay type: functional; settings: read-out: IZ
# Candida albicans [9] = assay: Antifungal activity against Candida albicans MTCC 183 at 100 ug/disc by paper disc diffusion technique; assay type: functional; settings: read-out: IZ
# Klebsiella pneumoniae [10] = assay: Antibacterial activity against Klebsiella pneumoniae MTCC 109 by agar streak dilution method; assay type: functional
# Salmonella typhi [11] = assay: Antibacterial activity against Salmonella typhi MTCC 733 at 100 ug/disc by paper disc diffusion technique; assay type: functional, Salmonella enterica subsp. enterica serovar Typhi; settings: Salmonella enterica, read-out: IZ
# Aspergillus clavatus [12] = assay: Antifungal activity against Aspergillus clavatus MTCC 1323 at 100 ug/disc by paper disc diffusion technique; assay type: functional; settings: read-out: IZ
# Shigella flexneri [13] = assay: Antibacterial activity against Shigella flexneri MTCC 1457 at 100 ug/disc by paper disc diffusion technique; assay type: functional; settings: read-out: IZ
# Klebsiella pneumoniae [14] = assay: Antibacterial activity against Klebsiella pneumoniae MTCC 109 at 100 ug/disc by paper disc diffusion technique; assay type: functional; settings: read-out: IZ
# Aspergillus fumigatus [15] = assay: Antifungal activity against Aspergillus fumigatus MTCC 343 at 100 ug/disc by paper disc diffusion technique; assay type: functional; settings: read-out: IZ
# Aspergillus niger [16] = assay: Antifungal activity against Aspergillus niger MTCC 282 at 100 ug/disc by paper disc diffusion technique; assay type: functional; settings: read-out: IZ
# Bacillus cereus [17] = assay: Antibacterial activity against Bacillus cereus MTCC 430 by agar streak dilution method; assay type: functional
# Pseudomonas aeruginosa [18] = assay: Antibacterial activity against Pseudomonas aeruginosa MTCC 741 at 100 ug/disc by paper disc diffusion technique; assay type: functional; settings: read-out: IZ
# [19] = system: Mycobacterium tuberculosis; assay: Antituberculosis activity against Mycobacterium tuberculosis H37Rv at 6.25 ug/ml by Lowenstein-Jensen method; assay type: functional
# Pseudomonas aeruginosa [20] = assay: Antibacterial activity against Pseudomonas aeruginosa MTCC 741 by agar streak dilution method; assay type: functional
# Staphylococcus aureus [21] = assay: Antibacterial activity against Staphylococcus aureus MTCC 96 by agar streak dilution method; assay type: functional
# Shigella flexneri [22] = assay: Antibacterial activity against Shigella flexneri MTCC 1457 by agar streak dilution method; assay type: functional
# Aspergillus fumigatus [23] = assay: Antifungal activity against Aspergillus fumigatus MTCC 343 by agar streak dilution method; assay type: functional
# [24] = Lipophilicity, log P of the compound; assay type: physicochemical; settings: octanol/water
# Escherichia coli [25] = assay: Antibacterial activity against Escherichia coli MTCC 739 by agar streak dilution method; assay type: functional
# Salmonella typhi [26] = assay: Antibacterial activity against Salmonella typhi MTCC 733 by agar streak dilution method; assay type: functional, Salmonella enterica subsp. enterica serovar Typhi; settings: Salmonella enterica
# [27] = system: Mycobacterium tuberculosis; assay: Antituberculosis activity against Mycobacterium tuberculosis H37Rv by BACTEC MGIT method; assay type: functional
# Aspergillus niger [28] = assay: Antifungal activity against Aspergillus niger MTCC 282 by agar streak dilution method; assay type: functional
Structure (SMILES),zone of inhibition at 100 µg/disc (Proteus vulgaris [1]),MIC [2],zone of inhibition at 100 µg/disc (Bacillus cereus [3]),MIC (Proteus vulgaris [4]),zone of inhibition at 100 µg/disc (Escherichia coli [5]),MIC (Candida albicans [6]),MIC (Aspergillus clavatus [7]),zone of inhibition at 100 µg/disc (Staphylococcus aureus [8]),zone of inhibition at 100 µg/disc (Candida albicans [9]),MIC (Klebsiella pneumoniae [10]),zone of inhibition at 100 µg/disc (Salmonella typhi [11]),zone of inhibition at 100 µg/disc (Aspergillus clavatus [12]),zone of inhibition at 100 µg/disc (Shigella flexneri [13]),zone of inhibition at 100 µg/disc (Klebsiella pneumoniae [14]),zone of inhibition at 100 µg/disc (Aspergillus fumigatus [15]),zone of inhibition at 100 µg/disc (Aspergillus niger [16]),MIC (Bacillus cereus [17]),zone of inhibition at 100 µg/disc (Pseudomonas aeruginosa [18]),inhibition at 6.25 µg/mL [19],MIC (Pseudomonas aeruginosa [20]),further results
Cc1ccc(NC(=O)CSc2nnc(Cn3cnc4ccccc43)o2)cc1,14 mm,100 µg/mL,13 mm,100 µg/mL,14 mm,100 µg/mL,100 µg/mL,11 mm,14 mm,100 µg/mL,17 mm,12 mm,< 10 mm,< 10 mm,< 10 mm,< 10 mm,100 µg/mL,14 mm,95%,100 µg/mL,MIC (Staphylococcus aureus [21]): 100 µg/mL; MIC (Shigella flexneri [22]): 100 µg/mL; MIC (Aspergillus fumigatus [23]): 100 µg/mL; logP [24]: 2.98; MIC (Escherichia coli [25]): 100 µg/mL; MIC (Salmonella typhi [26]): 100 µg/mL; MIC [27]: > 6.25 µg/mL; MIC (Aspergillus niger [28]): 100 µg/mL
O=C(CSc1nnc(Cn2cnc3ccccc32)o1)Nc1ccc([N+](=O)[O-])cc1,14 mm,100 µg/mL,13 mm,100 µg/mL,12 mm,100 µg/mL,50 µg/mL,20 mm,15 mm,100 µg/mL,13 mm,24 mm,19 mm,20 mm,18 mm,18 mm,100 µg/mL,20 mm,94%,50 µg/mL,MIC (Staphylococcus aureus [21]): 12.5 µg/mL; MIC (Shigella flexneri [22]): 100 µg/mL; MIC (Aspergillus fumigatus [23]): 100 µg/mL; MIC (Escherichia coli [25]): 100 µg/mL; MIC (Salmonella typhi [26]): 100 µg/mL; MIC [27]: > 6.25 µg/mL; MIC (Aspergillus niger [28]): 50 µg/mL
O=C(CSc1nnc(Cn2cnc3ccccc32)o1)Nc1ccc(F)cc1,14 mm,50 µg/mL,16 mm,50 µg/mL,18 mm,100 µg/mL,100 µg/mL,18 mm,16 mm,50 µg/mL,21 mm,17 mm,23 mm,22 mm,23 mm,19 mm,50 µg/mL,24 mm,97%,12.5 µg/mL,MIC (Staphylococcus aureus [21]): 25 µg/mL; MIC (Shigella flexneri [22]): 12.5 µg/mL; MIC (Aspergillus fumigatus [23]): 50 µg/mL; MIC (Escherichia coli [25]): 50 µg/mL; MIC (Salmonella typhi [26]): 50 µg/mL; MIC [27]: > 6.25 µg/mL; MIC (Aspergillus niger [28]): 50 µg/mL
O=C(CSc1nnc(Cn2cnc3ccccc32)o1)Nc1ccc(Br)cc1,17 mm,12.5 µg/mL,26 mm,100 µg/mL,19 mm,100 µg/mL,50 µg/mL,23 mm,16 mm,50 µg/mL,22 mm,23 mm,22 mm,22 mm,24 mm,16 mm,12.5 µg/mL,26 mm,99%,12.5 µg/mL,MIC (Staphylococcus aureus [21]): 6.25 µg/mL; MIC (Shigella flexneri [22]): 25 µg/mL; MIC (Aspergillus fumigatus [23]): 25 µg/mL; MIC (Escherichia coli [25]): 50 µg/mL; MIC (Salmonella typhi [26]): 50 µg/mL; MIC [27]: > 6.25 µg/mL; MIC (Aspergillus niger [28]): 100 µg/mL
CC(=O)Nc1ccc(NC(=O)CSc2nnc(Cn3cnc4ccccc43)o2)cc1,20 mm,100 µg/mL,11 mm,25 µg/mL,20 mm,100 µg/mL,100 µg/mL,< 10 mm,18 mm,100 µg/mL,< 10 mm,18 mm,16 mm,13 mm,15 mm,22 mm,100 µg/mL,19 mm,95%,100 µg/mL,MIC (Staphylococcus aureus [21]): 100 µg/mL; MIC (Shigella flexneri [22]): 100 µg/mL; MIC (Aspergillus fumigatus [23]): 100 µg/mL; MIC (Escherichia coli [25]): 50 µg/mL; MIC (Salmonella typhi [26]): 100 µg/mL; MIC [27]: > 6.25 µg/mL; MIC (Aspergillus niger [28]): 25 µg/mL
O=C(CSc1nnc(Cn2cnc3ccccc32)o1)Nc1ccc(Cl)cc1,20 mm,25 µg/mL,11 mm,50 µg/mL,15 mm,100 µg/mL,100 µg/mL,15 mm,14 mm,50 µg/mL,17 mm,14 mm,22 mm,21 mm,16 mm,< 10 mm,50 µg/mL,26 mm,98%,12.5 µg/mL,MIC (Staphylococcus aureus [21]): 50 µg/mL; MIC (Shigella flexneri [22]): 12.5 µg/mL; MIC (Aspergillus fumigatus [23]): 100 µg/mL; MIC (Escherichia coli [25]): 100 µg/mL; MIC (Salmonella typhi [26]): 100 µg/mL; MIC [27]: > 6.25 µg/mL; MIC (Aspergillus niger [28]): 100 µg/mL
